Test results published in ChEMBL document CHEMBL1133288, “Synthesis and antiviral evaluation of nucleic acid-based (NAB) libraries” (Bioorg Med Chem Lett, 2000).

System: Vero
Assay: Compound was evaluated for inhibition of HSV-1 induced plaques in vero cells (African green monkey kidney cells)
Assay type: functional, cell-based
Details: Chlorocebus sabaeus

Nc1nc2c(ncn2COCCO)c(=O)[nH]1 [ACYCLOVIR]
EC50: 6 µM
